Results published in PubChem BioAssay (NCI).
Where “and” joins values, the source holds several entries; their conditions need not be identical. Equal values may be shown once.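 Briefly, cells in 96-well plates were exposed to five compound concentrations for 48 h, and endpoints were estimated by linear interpolation. The concentration for 50% growth inhibition is given as GI50. TGI marks complete inhibition of growth.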

Key:
Assay in all cases: growth of human tumour cells (NCI), 48 h
[1] = system: HOP-62 NSCLC
[2] = system: 786-0 renal
[3] = system: CCRF-CEM leukemia
[4] = system: SF-295 CNS
[5] = system: ACHN renal
[6] = system: UACC-62 melanoma
[7] = system: TK-10 renal
[8] = system: HCT-15 colon
[9] = system: OVCAR-5 ovarian
[10] = system: SN12C renal

Row | Compound | TGI [1] [µM] | TGI [2] [µM] | TGI [3] [µM] | TGI [4] [µM] | TGI [5] | TGI [6] | TGI [7] [µM] | TGI [8] [µM] | TGI [9] [µM] | TGI [10] [µM] | GI50 [1] [µM] | GI50 [2] [µM] | GI50 [3] | GI50 [4] [µM] | GI50 [5] [µM] | GI50 [6] [µM] | GI50 [7] [µM] | GI50 [8] [µM] | GI50 [9] [µM] | GI50 [10] [µM]
1 | CCOC(=O)N1C/C(=C\c2ccc(N(C)C)cc2)C(=O)/C(=C/c2ccc(N(C)C)cc2)C1 | > 100 | > 100 | > 100 | > 100 | > 100 µM | > 100 µM | > 100 | > 100 | > 100 | > 100 |  |  |  |  |  |  |  |  |  | 
2 | Nc1ncnc2c1ncn2C1OC(F)(COS(N)(=O)=O)C(O)C1O (configuration not stated) | > 100 | > 100 | > 100 | > 100 | > 100 µM | > 100 µM | > 100 | > 100 | > 100 | > 100 | > 100 | > 100 | > 100 µM | > 100 | > 100 | > 100 | > 100 | > 100 | > 100 | > 100
3 | O=[N+]([O-])C(=C1c2ccccc2-c2ccccc21)[N+](=O)[O-] | > 100 | > 100 | > 100 | > 10 | > 100 µM | > 100 µM | > 100 | > 10 | > 100 | > 100 |  |  |  |  |  |  |  |  |  | 
4 | Cc1nc2sc(C(=O)Nc3cccc4c3OCCO4)c(N)c2cc1C(C)O (configuration not stated) | > 100 | > 100 | > 100 | > 100 | > 100 µM | > 100 µM | > 100 | > 100 | > 100 | > 100 | 5.35 | 5 | 3.5 µM | 5.04 | 5.54 | 2.97 | > 100 | 3.26 | 43.2 | 5.65
5 | N#C/C(=C\c1ccccn1)c1nc2ccccc2o1 | > 100 | > 100 | 69.6 | > 100 | 46.6 µM | 46.2 µM | > 100 | 55.8 | > 100 | > 100 | > 100 | 35.3 | 1.4 µM | 84.2 | 19.2 | 21.3 | 50.3 | 20.7 | 31.9 | 32.5
6 | CC12CC(Br)(Br)C(=O)C3C1CCCC32 | 28.5 | 9.32 | 9.43 | 29.5 | 15.5 µM | 19.7 µM | 12.5 | 15.7 | 32.1 | 11.4 |  |  |  |  |  |  |  |  |  | 
7 | CCCCCCCCCCCCNC(=S)OCCCC | > 100 | > 100 | > 100 | > 100 | > 100 µM | > 100 µM | > 100 | > 100 | > 100 | > 100 |  |  |  |  |  |  |  |  |  | 
8 | CC(C)C[C@H](NC(=O)[C@@H](N)Cc1cccc2ccccc12)B(O)O |  |  |  |  | 50 µM and > 100 µM | 1.28 µM and 0.148 µM |  |  |  |  | 0.831 | 0.207 | 0.0724 µM and < 0.01 µM | 0.313 | < 0.01 | 0.425 | 0.439 | 0.35 | 0.174 | 1.39
9 | Cc1nc2ccccc2c(/C=C/c2ccc(F)cc2)c1C(=O)/C=C/c1ccccc1 | 4.27 | 4.36 | > 100 | > 100 | 4.65 µM | 4.04 µM | > 100 | 6.2 | 3.95 | 6.07 | 1.91 | 2.03 | 2.44 µM | 4.72 | 1.98 | 1.86 | 4.05 | 1.92 | 1.92 | 2.25
10 | O=c1oc2cc(O)ccc2cc1-c1nc2ccccc2o1 | > 100 | > 100 | > 100 | > 100 | > 100 µM | > 100 µM | > 100 | > 100 | > 100 | > 100 |  |  |  |  |  |  |  |  |  | 
11 | Cc1ccc(C)c(NC(=O)C(=O)C(C2C(C)CC(=O)C2CC(=O)O)[N+](=O)[O-])c1 (configuration not stated) | > 100 | > 100 | > 100 | > 100 | > 100 µM | > 100 µM | > 100 | > 100 | > 100 | > 100 |  |  |  |  |  |  |  |  |  | 
12 | COC(=O)c1cc2c3cc(Cl)ccc3[nH]c2c2ncccc12 | > 100 | > 100 | > 100 | > 100 | > 100 µM | > 100 µM | > 100 | > 100 | > 100 | > 100 | > 100 | > 100 | > 100 µM | > 100 | > 100 | > 100 | > 100 | > 100 | > 100 | > 100
13 | Nc1ncnc2occ(-c3ccc(NC(=O)Nc4cccc(C(F)(F)F)c4)cc3)c12 | 10 | 10 | 20.1 | 15.7 | 12.1 µM | 6.54 µM | 11.8 | 18.2 | 13.3 | 18 | 5.09 | 4.46 | 3.51 µM | 3.76 | 1.4 | 3.02 | 2.9 | 4.24 | 5.5 | 2.01
14 | O=C(Nc1cccc2[nH]c(C(F)(F)F)nc12)c1ccc(Br)cc1F | 8.88 | 15.1 | 20.1 | 10.3 | 11.1 µM | 13.5 µM | 9.55 | 14.1 | 23.5 | 10.8 | 2.43 | 4.05 | 3.23 µM | 2.94 | 3.08 | 3.26 | 3.43 | 3.33 | 5.19 | 3.1
15 | COc1cccc2c1C(=O)c1c(O)c3c(c(O)c1C2=O)C[C@@](O)(C(=O)CO)C[C@@H]3OC1CC2C(OCN2CN2COC3C(C)OC(O[C@H]4C[C@](O)(C(=O)CO)Cc5c(O)c6c(c(O)c54)C(=O)c4c(OC)cccc4C6=O)CC32)C(C)O1 (some centres not stated) | 0.103 | 0.0343 | 0.0221 | 0.0259 | 0.0345 µM | 0.0159 µM | 0.0752 | > 1 | > 0.264 | 0.101 | 0.00609 | 0.00274 | 0.000537 µM | 0.0024 | 0.00194 | 0.0032 | 0.0205 | 0.0278 | 0.0304 | 0.00924
